In publication PMC6934184, “Selective DNA-PKcs inhibition extends the therapeutic index of localized radiotherapy and chemotherapy” (The Journal of Clinical Investigation, 2019) one finds inhibition data, which are given here for one compound.

Structures are written as SMILES.

The target in this assay is T1, BMPR1A (ALK3) (Homo sapiens, UniProt P36894).
T1 construct: purchased Thermo Fisher Scientific (Life Technologies) SelectScreen
Description: SelectScreen LanthaScreen. Format: binding. To be noted: read-out: % displacement. Summed up:
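SelectScreen broad panel; activity (Z'LYTE, Adapta) plus binding formats. ATP: Km app for CSF1R Z'LYTE; 10 for CAMK1 Adapta. Readout = % per kinase.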
In general terms: TR-FRET usually uses a lanthanide donor and a delayed reading to cut background.

T1 sequence (P36894 24-532): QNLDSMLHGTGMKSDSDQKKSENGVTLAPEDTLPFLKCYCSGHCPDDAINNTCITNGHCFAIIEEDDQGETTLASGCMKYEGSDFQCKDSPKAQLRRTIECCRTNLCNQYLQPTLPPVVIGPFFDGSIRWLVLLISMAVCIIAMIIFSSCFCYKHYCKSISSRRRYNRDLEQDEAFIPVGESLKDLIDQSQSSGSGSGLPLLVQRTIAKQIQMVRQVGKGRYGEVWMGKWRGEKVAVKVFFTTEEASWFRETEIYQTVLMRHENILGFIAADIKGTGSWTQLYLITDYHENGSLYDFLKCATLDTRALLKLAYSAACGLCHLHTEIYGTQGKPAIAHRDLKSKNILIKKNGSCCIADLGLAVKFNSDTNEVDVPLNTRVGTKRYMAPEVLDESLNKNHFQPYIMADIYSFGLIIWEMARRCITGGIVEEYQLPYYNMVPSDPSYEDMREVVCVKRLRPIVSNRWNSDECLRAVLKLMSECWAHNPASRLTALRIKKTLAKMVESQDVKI

Consider `CN(C(=O)CN1CCOCC1)c1ccc2sc3c(-c4cccc5c(=O)cc(N6CC7CCC(C6)O7)oc45)cccc3c2c1` [NU5455], for which the inhibition at 1 µM is -4.4%.
